Where “and” joins values, the source holds several entries; their conditions need not be identical. Equal entries are not always repeated.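 A five-concentration, 48-hour dose response in 96-well plates underlies each endpoint, interpolated linearly between surrounding concentrations. GI50 marks 50% less growth. TGI marks complete inhibition of growth.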
Tests used:
Assay in all cases: growth of human tumour cells (NCI), 48 h
SW-620 colon = system: SW-620 colon
ACHN renal = system: ACHN renal
HCT-116 colon = system: HCT-116 colon
HL-60(TB) leukemia = system: HL-60(TB) leukemia
EKVX NSCLC = system: EKVX NSCLC
K-562 leukemia = system: K-562 leukemia
RPMI-8226 leukemia = system: RPMI-8226 leukemia
LOX IMVI melanoma = system: LOX IMVI melanoma
M14 melanoma = system: M14 melanoma
OVCAR-3 ovarian = system: OVCAR-3 ovarian

SMILES | GI50 (SW-620 colon) | TGI (SW-620 colon) | GI50 (ACHN renal) | TGI (ACHN renal) | GI50 (HCT-116 colon) | GI50 (HL-60(TB) leukemia) | GI50 (EKVX NSCLC) [µM] | TGI (EKVX NSCLC) | GI50 (K-562 leukemia) | GI50 (RPMI-8226 leukemia) | TGI (RPMI-8226 leukemia) | TGI (LOX IMVI melanoma) | GI50 (M14 melanoma) | GI50 (OVCAR-3 ovarian) | TGI (OVCAR-3 ovarian) | TGI (HCT-116 colon) | TGI (HL-60(TB) leukemia) | TGI (K-562 leukemia) | GI50 (LOX IMVI melanoma) | TGI (M14 melanoma)
CC[C@@]1(O)C[C@H](OC2CC(N(C)C)C(O)C(C)O2)c2c(O)c3c(c(O)c2[C@H]1OC1CC(N(C)C)C(O)C(C)O1)C(=O)c1cccc(O)c1C3=O (stereo not given in full) | < 0.01 µM | 0.0149 µM | 0.03 µM and < 0.01 µM | < 0.01 µM | < 0.01 µM | 0.0102 µM | < 0.01 | 0.538 µM and 0.167 µM | < 0.01 µM | < 0.01 µM | 0.581 µM and 0.0919 µM | 0.0923 µM | < 0.01 µM | < 0.01 µM | < 0.01 µM | – | – | – | – | –
COc1cc(Cc2cnc(/N=C3\C(=O)N(CN4CCN(c5c(F)cc6c(=O)c(C(=O)O)cn(C7CC7)c6c5OC)CC4C)c4ccc(F)cc43)nc2N)cc(OC)c1OC (stereo not given) | 5.28 µM | 23.3 µM | 1.72 µM | 14.6 µM | 7.78 µM | 3.28 µM | 21.9 | 56.6 µM | 6.41 µM | 2.31 µM | 8.24 µM | 4.74 µM | 10.3 µM | 5.87 µM | 22.1 µM | 20.6 µM | > 100 µM | > 100 µM | 2.38 µM | 22 µM
CCC(CO)Nc1nc2ccc(Cl)cc2c2ccccc12 (stereo not given) | 13.5 µM | 26.9 µM | 9.05 µM | 21.1 µM | 10.8 µM | 7.62 µM | 6.23 | 20.2 µM | 3.01 µM | 4.04 µM | 26.4 µM | 19.4 µM | 12.8 µM | 12.2 µM | 24.7 µM | 22.7 µM | 63.3 µM | 11.5 µM | 6.17 µM | 25.6 µM
COC(=O)[C@@H]1[C@H](O)[C@H](C)[C@H](O)[C@@](C)(O)/C=C\C=C(C)C(=O)Nc2c(C)c(OC(C)=O)c3c(c2O)C(=O)C(C)=C2OCOC(=C23)C(C)=C[C@@](C)(O)[C@H](O)[C@@H](C)[C@H]1OC(C)=O | – | > 100 µM and 21 µM | > 66.9 µM | > 100 µM | 59.7 µM | 11.5 µM | > 66.9 | > 100 µM | 32.4 µM | 24.1 µM | > 100 µM and 66.9 µM and 96.5 µM | > 100 µM and 66.9 µM and 41.7 µM | > 100 µM and 21 µM and 29.1 µM | 56.5 µM | 87.6 µM and 66.9 µM and > 100 µM | > 100 µM and 66.9 µM | > 100 µM and 64.6 µM and 39.9 µM | > 100 µM and 66.9 µM | – | > 100 µM and 66.9 µM and 86.5 µM
O=C(O)CCc1coc2ccc(O)cc12 | – | > 100 µM | – | > 100 µM | – | – | – | > 100 µM | – | – | > 100 µM | > 100 µM | – | – | > 100 µM | > 100 µM | > 100 µM | > 100 µM | – | > 100 µM
COC1CCC2C(NS(=O)(=O)c3ccc(C)cc3)CCCC2O1 (stereo not given) (tested in a mixture with another compound) | – | > 34.5 µM | – | > 34.5 µM | – | – | – | > 34.5 µM | – | – | 14.7 µM | 13 µM | – | – | > 34.5 µM | 15.8 µM | 18.5 µM | 27.8 µM | – | > 34.5 µM
Cc1ccc2c(=O)cc(-c3ccc(F)cc3)[nH]c2n1 | – | > 100 µM | – | > 100 µM | 33.9 µM | – | – | > 100 µM | – | – | 95.1 µM | > 100 µM | – | 32.2 µM | > 100 µM | > 100 µM | 34.3 µM | 83 µM | – | > 100 µM
CC1=C(C(=O)Nc2ccc(Cl)c(Cl)c2)C(c2cccc(Oc3ccccc3)c2)NC(=S)N1 (stereo not given) | 8.23 µM | 15 µM | 8.07 µM | 15.1 µM | 20.6 µM | 15.9 µM | 7.55 | 15 µM | 12.4 µM | 11.2 µM | > 50 µM | 14.7 µM | 9.21 µM | 1.87 µM | 8.15 µM | > 50 µM | > 50 µM | > 50 µM | 7.48 µM | 20.1 µM
O=C1C2C(C(=O)N1OS(=O)(=O)c1ccccc1)N(Cc1ccccc1)C(=O)N2Cc1ccccc1 (stereo not given) | – | > 100 µM | – | > 100 µM | – | – | – | > 100 µM | – | – | > 100 µM | > 100 µM | – | – | > 100 µM | > 100 µM | > 100 µM | > 100 µM | – | > 100 µM
O=C(O)CSc1ccc([N+](=O)[O-])cc1[N+](=O)[O-] | – | > 100 µM | – | > 100 µM | – | – | – | > 100 µM | – | – | > 100 µM | > 100 µM | – | – | > 100 µM | > 100 µM | > 100 µM | > 100 µM | – | > 100 µM
O=C(Nc1ccc(Cl)c(Cl)c1)Nc1ccc(Cl)c(Cl)c1 | 3.36 µM and 3.12 µM | 14.4 µM and 11.7 µM | 2.34 µM and 3.28 µM | 6.49 µM and 10.5 µM | 2.85 µM and 2.1 µM | 2.58 µM and 2.16 µM | 2.36 | 11.1 µM | 3.39 µM and 1.97 µM | 1.79 µM and 0.997 µM | 6.99 µM and 5.33 µM | 4.94 µM and 10.3 µM | 3.1 µM | 3.03 µM and 1.66 µM | 10.9 µM and 5.9 µM | 11 µM and 7.41 µM | 7.24 µM and 6.68 µM | 19.8 µM and 9.9 µM | 2.26 µM and 2.95 µM | 9.59 µM
O=C1CC(c2ccc3c(c2)OCO3)Nc2ccccc21 (stereo not given) | 6.61 µM | 23.1 µM | 7.22 µM | > 87.4 µM | 10.2 µM | 3.16 µM | 11.8 | 46.4 µM | 3.33 µM | 3.05 µM | 13.3 µM | 20.5 µM | 14 µM | 5.01 µM | 21.3 µM | 23.9 µM | > 100 µM | > 100 µM | 5.91 µM | 30.5 µM
NC(=O)c1sc(-n2cnc3ccccc32)cc1OCc1ccccc1Br | 1.17 µM | > 25 µM | 15.8 µM | > 25 µM | 2.61 µM | 1.28 µM | 17.9 | > 25 µM | 6.71 µM | 12.6 µM | > 25 µM | > 25 µM | 5.71 µM | 1.55 µM | 17.6 µM | > 25 µM | > 25 µM | > 25 µM | 1.98 µM | > 25 µM
COc1ccc(C(=O)Cn2c(C(=O)c3ccccc3)nc(-c3ccc(OC)cc3)c2-c2ccc(OC)cc2)cc1 | > 100 µM | > 100 µM | > 100 µM | > 100 µM | > 100 µM | > 100 µM | > 100 | > 100 µM | > 100 µM | > 100 µM | > 100 µM | > 100 µM | > 100 µM | > 100 µM | > 100 µM | > 100 µM | > 100 µM | > 100 µM | > 100 µM | > 100 µM
Clc1ccc2c(NCCCCNc3nc(N4CCCCC4)nc4ccccc34)ccnc2c1 | 1.59 µM | 4.78 µM | 2.1 µM | 4.77 µM | 1.2 µM | 1.76 µM | 2.69 | 13.8 µM | 1.34 µM | 1.46 µM | 3.94 µM | 3.14 µM | 1.62 µM | 1.95 µM | 4.89 µM | 3.06 µM | 3.52 µM | 4.1 µM | 1.5 µM | 3.14 µM
NC(Cc1c[nH]c2c(O)cccc12)C(=O)O (stereo not given) | > 100 µM | > 100 µM | > 100 µM | > 100 µM | > 100 µM | > 100 µM | > 100 | > 100 µM | > 100 µM | > 100 µM | > 100 µM | > 100 µM | > 100 µM | > 100 µM | > 100 µM | > 100 µM | > 100 µM | > 100 µM | > 100 µM | > 100 µM
CCOc1ccc(NC(=O)C(=O)CC(=O)c2c[n+](=O)c3cc(C)c(C)cc3n2[O-])cc1 | – | > 100 µM | – | > 100 µM | – | – | – | > 100 µM | – | – | > 100 µM | > 100 µM | – | – | > 100 µM | > 100 µM | > 100 µM | > 100 µM | – | > 100 µM
O=C(/C=C/C12c3ccccc3C(c3ccccc31)C1C(=O)NC(=O)C12)c1ccncc1 (stereo not given) | 2.47 µM | 7.95 µM | 2.83 µM | 8.39 µM | 1.58 µM | 1.76 µM | 6.02 | 20.8 µM | 1.88 µM | 2.11 µM | 5.48 µM | 3.51 µM | 2.44 µM | 2.34 µM | 5.96 µM | 4.31 µM | 6.1 µM | > 100 µM | 1.68 µM | 7.65 µM
O=CN/C=C/c1cc(O)ccc1O | – | 21.5 µM | – | 28.9 µM | – | – | – | 35.6 µM | – | – | 78.2 µM | 28.1 µM | – | – | 22.5 µM | 29.2 µM | 13.2 µM | 52.9 µM | – | 32.8 µM
CC(C)C/C(CC(=O)CCC(=O)Nc1ccccc1[N+](=O)[O-])=N\NC(=O)c1cc2ccccc2cc1O | – | > 100 µM | – | > 100 µM | – | – | – | > 100 µM | – | – | > 100 µM | 79 µM | – | – | 99.3 µM | > 100 µM | 88.7 µM | > 100 µM | – | > 100 µM
N#CC1C(C#N)C2(c3ccccc3)C(c3ccccc3)=NN(c3ccccc3)CC12 (stereo not given) | – | > 100 µM | – | > 100 µM | – | – | – | > 100 µM | – | – | > 100 µM | > 100 µM | – | – | > 100 µM | > 100 µM | > 100 µM | > 100 µM | – | > 100 µM

Reference: PubChem BioAssay (NCI)
